Measured values taken from ChEMBL document CHEMBL5604063, “ASAP - DENV-2 NS2B-NS3 protease fluorescence dose response” (2024).

Experiments:
[1] = biological target: T1, Genome polyprotein (dengue virus type 2, UniProt P29990); assay type: functional, Thailand/16681/1984
[2] = biological target: T1, Genome polyprotein; assay type: functional, Thailand/16681/1984; remark: listed apart in the source

T1 sequence (P29990 1346-1475 limits assumed): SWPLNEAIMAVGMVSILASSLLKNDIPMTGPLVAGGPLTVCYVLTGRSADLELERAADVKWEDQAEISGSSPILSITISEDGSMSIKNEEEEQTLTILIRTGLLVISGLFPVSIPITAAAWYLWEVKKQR
T1 sequence (P29990 1476-2093 limits assumed): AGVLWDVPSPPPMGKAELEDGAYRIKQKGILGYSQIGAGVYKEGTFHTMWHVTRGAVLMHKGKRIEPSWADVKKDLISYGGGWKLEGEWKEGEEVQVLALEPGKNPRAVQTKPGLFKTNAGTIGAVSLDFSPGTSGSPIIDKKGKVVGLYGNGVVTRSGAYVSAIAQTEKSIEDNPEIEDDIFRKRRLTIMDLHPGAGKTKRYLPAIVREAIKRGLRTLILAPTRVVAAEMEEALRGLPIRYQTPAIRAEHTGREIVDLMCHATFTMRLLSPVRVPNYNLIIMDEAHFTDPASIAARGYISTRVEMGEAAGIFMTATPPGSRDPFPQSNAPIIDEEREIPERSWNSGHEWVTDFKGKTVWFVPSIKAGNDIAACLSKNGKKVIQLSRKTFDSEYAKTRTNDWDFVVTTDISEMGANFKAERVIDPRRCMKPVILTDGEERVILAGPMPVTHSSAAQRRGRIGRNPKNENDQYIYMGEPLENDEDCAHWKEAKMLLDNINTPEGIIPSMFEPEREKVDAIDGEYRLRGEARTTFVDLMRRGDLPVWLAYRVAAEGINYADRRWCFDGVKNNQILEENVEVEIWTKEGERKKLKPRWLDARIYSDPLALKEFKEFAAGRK

| SMILES | IC50 [1] [µM] | IC50 [2] [µM] |
| --- | --- | --- |
| CCc1[nH]c2ccccc2c1CN1CCC(c2cscn2)CC1 | > 100 | > 99.5 |
| CC(C)(C)NS(=O)(=O)c1cccc(C(=O)Nc2cccc(CN)c2)c1 | > 100 | > 99.5 |
| Cn1nc(C2CC2)c2c(C(=O)Nc3cccc(CN)c3)cc(C3CC3)nc21 | > 100 | > 99.5 |
| COCCCC(=O)N1CCC([C@H](NC(=O)OCc2ccccc2)C(=O)Nc2cccc(CN)c2)CC1 | > 100 | > 99.5 |
| NCc1cccc(NC(=O)c2cc(C3CC3)nn2-c2ccccc2)c1 | > 100 | > 99.5 |
| CC(C)(C#N)c1cc(C(=O)Nc2cccc(CN)c2)cc(C(F)(F)F)c1 | > 100 | > 99.5 |
| NCc1ccc(CNC(=O)c2cc(Cl)cc(NC(=O)OCc3ccccc3)c2)c(F)c1 | > 100 | > 99.5 |
| CCC1(NC(=O)Cn2ccnc(N3CC[C@@H](CO)C3)c2=O)CC1 | > 100 | > 99.5 |
| CCCn1nc(C)c2c(C(=O)Nc3cccc(CN)c3)cc(C)nc21 | > 100 | > 99.5 |
| CCC1CN(C(=O)Cn2ccnc(N3CC[C@@H](CO)C3)c2=O)C1 | > 100 | > 99.5 |
| O=C(Nc1cc(Cl)cc(C(=O)NC[C@@]23CC[C@H](CNC2)C3)c1)OCc1ccccc1 | > 100 | > 99.5 |
| NCc1cccc(NC(=O)c2ccc(=O)n(Cc3ccccc3Cl)c2)c1 | > 100 | > 99.5 |
| C#Cc1cc(CN)ccc1NS(=O)(=O)c1ccc(Oc2ccccc2Cl)cc1 | > 100 | > 99.5 |
| Cc1ccc(S(=O)(=O)N2CCC([C@@H](NC(=O)OCc3ccccc3)C(=O)Nc3cccc(CN)c3)CC2)c(C)c1 | > 100 | > 99.5 |
| O=C(Cn1ccnc(N2CC[C@H](CO)C2)c1=O)NCc1cc[nH]n1 | > 100 | > 99.5 |
| Cc1ccc(C(=O)Nc2cccc(CN)c2)cc1NC(=O)Cc1ccncc1 | > 100 | > 99.5 |
| O=C(Nc1cc(Cl)cc(C(=O)NC[C@H]2CCNC3(CC3)C2)c1)OCc1ccccc1 | > 100 | > 99.5 |
| c1cncc(-c2cccc(NCc3c[nH]c4ccccc34)c2)c1 | > 100 | > 99.5 |
| NCc1cccc(NC(=O)c2nn(-c3ccccc3F)cc2Br)c1 | > 100 | > 99.5 |
| O=C(Nc1cc(Cl)cc(C(=O)N[C@@]23CCCCC[C@@H]2NCC3)c1)OCc1ccccc1 | > 100 | > 99.5 |
| NCc1cccc(NC(=O)c2cc(C(F)(F)F)nn2CC2CCC2)c1 | > 100 | > 99.5 |

| SMILES | IC50 [1] [µM] | IC50 [2] [µM] |
| --- | --- | --- |
| CCCC(=O)Nc1cc(Cl)cc(C(=O)Nc2cccc(CN)c2)c1 | > 100 | > 99.5 |
| C[C@H]1CCCCN1C(=O)Cn1ccnc(N2CC[C@@H](CO)C2)c1=O | > 100 | > 99.5 |
| NCc1cccc(NC(=O)c2cc(C3CC3)n3nc(C(F)(F)F)cc3n2)c1 | > 100 | > 99.5 |
| NCc1cccc(NC(=O)c2c(C(F)F)nc3cnccn23)c1 | > 100 | > 99.5 |
| CNC(=O)CN1CCC([C@@H](NC(=O)OCc2ccccc2)C(=O)Nc2cccc(CN)c2)CC1 | > 100 | > 99.5 |
| Cc1ccc(NC(=O)c2cc(Cl)ccc2Cl)c(C(=O)Nc2cccc(CN)c2)c1 | > 100 | > 99.5 |
| O=c1[nH]c2cccc(N3CCN(Cc4c[nH]c5ccccc45)CC3)c2o1 | > 100 | > 99.5 |
| O=C(Nc1cc(Cl)cc(C(=O)NC2([C@H]3CCNC3)CC2)c1)OCc1ccccc1 | > 100 | > 99.5 |
| N[C@@H]1CC[C@H](CCNC(=O)c2cc(Cl)cc(NC(=O)OCc3ccccc3)c2)C1 | > 100 | > 99.5 |
| Cc1cc(C(=O)Nc2cccc(CN)c2)cc(NC(=O)OCc2ccccc2)c1Cl | > 100 | 55.4 |
| N[C@@H]1CC[C@H](NC(=O)c2cc(Cl)cc(NC(=O)OCc3ccccc3)c2)C1 | > 100 | > 99.5 |
| CN(c1ccc(Oc2ccccc2Cl)cc1)S(=O)(=O)c1cc(F)c(Cl)cc1C(=O)O | 46.5 | 65.4 |
| c1ccc2c(CNC3CCN(Cc4cscn4)CC3)c[nH]c2c1 | > 100 | > 99.5 |
| CCCCCn1cc(C(=O)Nc2cccc(CN)c2)c2ccccc21 | > 100 | > 99.5 |
| Cc1cc(C(=O)Nc2cccc(CN)c2)nc2c(C(C)C)cnn12 | > 100 | > 99.5 |
| Cc1noc(C)c1Cc1ccc(C(=O)Nc2cccc(CN)c2)o1 | > 100 | > 99.5 |
| CN1CCC(COc2ccc([C@@H](NC(=O)OCc3ccccc3)C(=O)Nc3cccc(CN)c3)cc2)CC1 | > 100 | > 99.5 |
| Cn1nc2c(c1NC(=O)c1cc(Cl)cc(NC(=O)OCc3ccccc3)c1)CNCC2 | > 100 | 60.7 |
| NCc1cccc(NC(=O)c2nn(-c3ccc(Cl)c(F)c3)c3c2CCC3)c1 | > 100 | 72.7 |
| CCC[C@H](Oc1ccc(Cl)cc1C)C(=O)Nc1cccc(CN)c1 | > 100 | > 99.5 |
| CCCN(C)CC(=O)N1CCC([C@@H](NC(=O)OCc2ccccc2)C(=O)Nc2cccc(CN)c2)CC1 | > 100 | > 99.5 |
